Data on six compounds can be found in article PMC8154566, “Scaffold-Hopping Strategy on a Series of Proteasome Inhibitors Led to a Preclinical Candidate for the Treatment of Visceral Leishmaniasis” (Journal of Medicinal Chemistry, 2021).

A short description of series [1]: FaSSIF (fasted state simulated intestinal fluid) solubility. The format is physicochemical. To be noted: for solubility at 4 h: pH 6.5, Table 6; for solubility: supplementary csv.
The test system of a further series is L. donovani amastigotes. In words: INMAC assay: intramacrophage L. donovani in differentiated THP-1 cells. Type of series: cell-based, Leishmania donovani. As to conditions: Leishmania donovani; for EC50: THP-1, Table 6, at least three replicates, SD ≤0.4, read-out: INMAC pEC50 (converted). The method in brief:
(§1)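 Intramacrophage L. donovani amastigotes in differentiated THP-1 cells, run per an earlier protocol but with 96 h compound exposure instead of 72 h. Aqueous solubility also follows a previously described method.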

For another series, the system named is THP-1 cells. Put plainly: THP-1 host cell read-out of the INMAC assay. To be noted: Homo sapiens; for EC50: Table 6, read-out: THP-1 pEC50 (converted). The format is cell-based. The method in brief: as §1
The nature of series [2]: Mouse liver microsomal intrinsic clearance. Type of series: in vitro ADME. To be noted: for Mouse CLi: Table 6, mouse liver microsomes; for Cli (mouse, ml/min/g): supplementary csv. On the technique in general: Liver microsomes are vesicles of endoplasmic reticulum, rich in cytochrome P450 enzymes.
Series [3] is described as follows: Kinetic aqueous solubility by CLND. Type of series: physicochemical. The method, boiled down:
as §1

The mark [4] stands for this setting: THP-1, supplementary csv, read-out: THP1 pIC50 (converted).
The mark [5] stands for this setting: Table 6, kinetic, CLND, read-out: Aq. solubility.
[6] abbreviates: supplementary csv, read-out: Aqueous Solubility.

Converted amounts (≈) assume the structure as drawn. Where two headings read alike, the source gives them in different places. A value given as a limit tells only on which side of the number the result lay.

By solubility is commonly meant how much of the substance goes into solution per volume. `CC(=O)N1CCN(c2cnc3nc(-c4cc(NC(=O)N5CCCC5)ccc4F)ccn23)CC1` [Compound 36, N-(3-(3-(4-Acetylpiperazin-1-yl)imidazo[1,2-a]pyrimidin-7-yl)-4-fluorophenyl)pyrrolidine-1-carboxamide] had a solubility at 4 h in series [1] of 1310 µM (≈ 591 µg/mL). In addition, the solubility is over 1000 µM in series [1], at least 381 µM in series [3] (setting [5]) and at least 380 µM in series [3] (setting [6]). The IC50 was over 50.1 µM in the series on L. donovani amastigotes (THP-1, read-out: LdInMac pIC50 (converted)) and over 50.1 µM with THP-1 cells (setting [4]). For the same compound, the EC50 in the series on L. donovani amastigotes and in the series on THP-1 cells (THP-1) was over 50.1 µM throughout. Besides, the “Mouse CLi” value in series [2] came to 1.5 mL/min/g. Also, the “Cli (mouse, ml/min/g)” value in series [2] amounted to 1.5 mL/min/g.
In the case of `CC1CN(c2cnc3nc(-c4cc(NC(=O)N5CCCC5)ccc4F)ccn23)CCO1` (stereo not drawn) [Compound 38, N-(4-Fluoro-3-(3-(2-methylmorpholino)imidazo[1,2-a]pyrimidin-7-yl)phenyl)pyrrolidine-1-carboxamide], the solubility at 4 h in series [1] was 252 µM (≈ 107 µg/mL). Also, the solubility in series [1] is 250 µM (≈ 106 µg/mL); in series [3] (setting [5]), 248 µM (≈ 105 µg/mL); in series [3] (setting [6]) it was 250 µM (≈ 106 µg/mL). Further, the EC50 with L. donovani amastigotes was 0.794 µM; with THP-1 cells (THP-1) it was 50.1 µM. Moreover, in the series on THP-1 cells (setting [4]), the IC50 was 50.1 µM. In addition, the “Mouse CLi” value in series [2] stood at 1.7 mL/min/g. In addition, the “Cli (mouse, ml/min/g)” value in series [2] came out at 1.7 mL/min/g.
For `C[C@@H]1CN(c2cnc3nc(-c4cc(NC(=O)N5CCCC5)ccc4F)ccn23)C[C@H](C)O1` [Compound 41, N-(3-(3-((2S,6R)-2,6-Dimethylmorpholino)imidazo[1,2-a]pyrimidin-7-yl)-4-fluorophenyl)pyrrolidine-1-carboxamide], the solubility at 4 h in series [1] is 372 µM (≈ 163 µg/mL). Also, the results for the solubility in series [1], in series [3] (setting [5]) and in series [3] (setting [6]) were 365 µM (≈ 160 µg/mL), 142 µM (≈ 62.3 µg/mL) and 170 µM (≈ 74.5 µg/mL), respectively. The EC50 in the series with L. donovani amastigotes was 1.58 µM; with THP-1 cells (THP-1), 63.1 µM. Moreover, the IC50 in the series with THP-1 cells (THP-1, read-out: THP1 pIC50 (converted)) was 63.1 µM. The “Mouse CLi” value in series [2] amounted to 3.4 mL/min/g. Moreover, the “Cli (mouse, ml/min/g)” value in series [2] was 3.4 mL/min/g.
Turning to `CC1(C)CN(c2cnc3nc(-c4cc(NC(=O)N5CCCC5)ccc4F)ccn23)CCO1` [Compound 42, N-(3-(3-(2,2-Dimethylmorpholino)imidazo[1,2-a]pyrimidin-7-yl)-4-fluorophenyl)pyrrolidine-1-carboxamide], the concentration in solution in series [1] (solubility at 4 h) came to 1840 µM (≈ 806 µg/mL). For the same compound, the solubility in series [1] was over 1000 µM; in series [3] (setting [5]) it was 247 µM (≈ 108 µg/mL); in series [3] (setting [6]), 250 µM (≈ 110 µg/mL). Moreover, the EC50 was 1 µM with L. donovani amastigotes and 25.1 µM in the series with THP-1 cells (THP-1). In addition, the IC50 with THP-1 cells (setting [4]) is 25.1 µM. Also, the “Mouse CLi” value in series [2] is listed as 2.9 mL/min/g. Further, in series [2], the “Cli (mouse, ml/min/g)” value is 2.9 mL/min/g.
Take `CC1(C)COCCN1c1cnc2nc(-c3cc(NC(=O)N4CCCC4)ccc3F)ccn12` [Compound 43, N-(3-(3-(3,3-Dimethylmorpholino)imidazo[1,2-a]pyrimidin-7-yl)-4-fluorophenyl)pyrrolidine-1-carboxamide]: in series [1], the solubility at 4 h is 627 µM (≈ 275 µg/mL). In addition, the solubility in series [1] is 630 µM (≈ 276 µg/mL); in series [3] (setting [5]), 210 µM (≈ 92.1 µg/mL). Moreover, the EC50 in the series with L. donovani amastigotes was 0.794 µM; in the series with THP-1 cells (THP-1) it was 50.1 µM. The IC50 in the series on THP-1 cells (setting [4]) was 50.1 µM. In addition, the “Mouse CLi” value in series [2] was 6.0 mL/min/g. Further, the “Cli (mouse, ml/min/g)” value in series [2] is 6 mL/min/g.
In the case of `O=C(Nc1ccc(F)c(-c2ccn3c(N4CCC5(CCOC5)C4)cnc3n2)c1)N1CCCC1` (stereo not drawn) [Compound 44, N-(3-(3-(2-Oxa-7-azaspiro[4.4]nonan-7-yl)imidazo[1,2-a]pyrimidin-7-yl)-4-fluorophenyl)pyrrolidine-1-carboxamide], the solubility at 4 h in series [1] is 852 µM (≈ 384 µg/mL). Moreover, the solubility in series [1] is 850 µM (≈ 383 µg/mL); in series [3] (setting [5]), 339 µM (≈ 153 µg/mL); in series [3] (setting [6]) it was 340 µM (≈ 153 µg/mL). In addition, the EC50 in the series on L. donovani amastigotes is 1.26 µM; in the series with THP-1 cells (THP-1), 50.1 µM. For the same compound, in the series with THP-1 cells (setting [4]), the IC50 is 50.1 µM. For the same compound, the “Mouse CLi” value in series [2] was 3.7 mL/min/g. Further, the “Cli (mouse, ml/min/g)” value in series [2] worked out at 3.7 mL/min/g.
